Assay results as given in ChEMBL document CHEMBL4622911, “A cell-based fluorescent assay for FAP inhibitor discovery” (Bioorg Med Chem Lett, 2020).

What was measured:
Type in all cases: cell-based
Settings in all cases: U-87MG ATCC
[1] = molecular target: Prolyl endopeptidase FAP (Homo sapiens) (UniProt Q12884); test: Inhibition of FAP in human U87MG cells using Gly-Pro-AMC as substrate at 1 uM incubated for 90 mins by fluorescence based assay relative to control
[2] = molecular target: Prolyl endopeptidase FAP (Homo sapiens) (UniProt Q12884); test: Inhibition of FAP in human U87MG cells using Z-Gly-Pro-AMC as substrate at 1 uM incubated for 90 mins by fluorescence based assay relative to control
[3] = molecular target: Prolyl endopeptidase FAP (Homo sapiens) (UniProt Q12884); test: Inhibition of FAP in human U87MG cells using Suc-Gly-Pro-AMC as substrate at 1 uM incubated for 90 mins by fluorescence based assay relative to control

Prolyl endopeptidase FAP (Homo sapiens), sequence (Q12884 whole entry): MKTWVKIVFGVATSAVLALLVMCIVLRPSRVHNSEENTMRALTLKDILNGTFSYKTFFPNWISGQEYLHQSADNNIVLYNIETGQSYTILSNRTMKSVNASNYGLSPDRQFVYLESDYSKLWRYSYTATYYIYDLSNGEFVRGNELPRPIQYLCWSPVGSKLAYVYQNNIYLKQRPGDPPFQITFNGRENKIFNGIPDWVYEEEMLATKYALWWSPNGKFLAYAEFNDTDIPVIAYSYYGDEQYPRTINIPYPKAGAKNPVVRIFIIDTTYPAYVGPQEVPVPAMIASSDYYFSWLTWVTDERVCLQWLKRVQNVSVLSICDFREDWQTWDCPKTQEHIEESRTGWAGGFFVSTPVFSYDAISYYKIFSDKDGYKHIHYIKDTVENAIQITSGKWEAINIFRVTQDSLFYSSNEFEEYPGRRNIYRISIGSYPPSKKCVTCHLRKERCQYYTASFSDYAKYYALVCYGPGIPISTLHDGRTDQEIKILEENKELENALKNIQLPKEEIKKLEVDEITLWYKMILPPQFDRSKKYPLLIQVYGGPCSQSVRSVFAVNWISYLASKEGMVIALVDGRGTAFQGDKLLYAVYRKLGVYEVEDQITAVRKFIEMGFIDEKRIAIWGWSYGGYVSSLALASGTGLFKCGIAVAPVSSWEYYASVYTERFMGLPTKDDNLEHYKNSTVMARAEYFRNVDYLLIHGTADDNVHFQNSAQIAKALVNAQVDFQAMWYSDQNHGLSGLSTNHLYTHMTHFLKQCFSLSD

Work on `N#C[C@@H]1CC(F)(F)CN1C(=O)CNC(=O)c1ccnc2ccccc12` yielded an inhibition [1] of 17.5%, an inhibition [2] of 30.7% and an inhibition [3] of 91.9%.
